Measured values taken from patent EP4537832A1, “METHOD FOR TREATING CANCER PATIENT WITH AKR1C3 ENZYME-ACTIVATED PRODRUG” (Ascentawits Pharmaceuticals, Ltd., priority 2022, dated 2023).
“Also recorded” adds a separate entry of the source.

How the values were obtained:
[1] = test system: AKR1C3; details: HPAF II cells; increasing SFN concentration 0.875-7 µM, overnight
Method: (§1) The solution of SFN compound (Sulforaphane, NRF2 activator) was added to HPAF II cell suspension, cultured overnight in a 37 °C, 5% CO2 incubator, and the cell protein lysate was collected for Western blot (WB) detection.
(§2) The experiment was assigned to 5 groups: 0.5% DMSO, 0.875 µM SFN, 1.75 µM SFN, 3.5 µM SFN, and 7 µM SFN.
(§3) HPAF II cells were treated with different concentrations of NRF2 activator SFN, and then the expression of NRF2 and AKR1C3 was detected by Western blot.

[2] = test system: NRF2; details: HPAF II cells; increasing SFN concentration 0.875-7 µM, overnight
Method: as §1, §2, §3

[3] = test system: p-ERK2; assay: Western blot in HPAF II cells with MEK/ERK modulators and AST: p-ERK2; type: cell-based
From the text: The experiment used three types of MEK/ERK modulators, including two inhibitors and one activator. The inhibitors were PD98059, a MEK1/2 specific inhibitor, and Suramin, a broad-spectrum growth factor receptor inhibitor; while the activator of the ERK signaling pathway is Phorbol Ester (TPA). The chemical structures of inhibitor PD98059, inhibitor Suramin, and activator TPA are as follows: [drawing 48] [drawing 49] [drawing 50]
The experiment was assigned to inhibitor group and activator group, both of which were performed by Western Blot and cell apoptosis experiments.
In the Western blot experiment, HPAF II cell suspensions were treated with each group of compounds, and cultured overnight in a 37 °C, 5% CO2 incubator, and the cell protein lysate was collected for Western blot (WB) detection.
The specific compounds to be treated in the Western blot inhibitor group and activator group are as follows: Inhibitor group: 1% DMSO treatment group, 1 µM AST treatment group, 30 µM PD98059 treatment group, 1 mM Suramin treatment group, 1 µM AST + 30 µM PD98059 treatment group, and 1 µM AST + 1 mM Suramin treatment group; and Activator group: 1% DMSO treatment group, 0.5 µM AST treatment group, 25 nM TPA treatment group, and 0.5 µM AST + 25 nM TPA treatment group.

[4] = test system: HPAF II cells; assay: Cell apoptosis detection (Caspase Glo 3/7) in HPAF II cells with MEK/ERK modulators and AST; type: cell-based
Method: Additionally, cell apoptosis detection was performed as follows: • 1) Caspase Glo® 3/7 reagents were prepared and equilibrated to room temperature. The buffer of the reagents and the substrate were mixed homogeneously at 1:1 to prepare Caspase Glo® 3/7 reagents. The configured reagents can be stored at 4 °C for 3 days. • 2) 100 µL Caspase Glo® 3/7 reagents were added to each well of culture medium containing 100 µL blank (wells without cells), negative control cells, or treated cells. Due to the sensitivity of the analysis, be careful not to make the tip of the pipette to touch the holes that contained samples to avoid cross contamination. The plates were covered with a plate sealant or lid. • 3) The reagent solutions were mixed gently using a shaker at a speed of 300-500 rpm for 30 seconds, and left in the dark at room temperature for 1 hour. • 4) The luminescence of each sample was measured in a plate reading photometer. And the luminescence value of each group was calculated, and analyze by making a column diagram.
The specific compounds to be treated in the apoptosis inhibitor group and activator group are as follows: Inhibition group: 1% DMSO treatment group, 1 µM AST treatment group, 30 µM PD98059 treatment group, 1 mM Suramin treatment group, 1 µM AST + 30 µM PD98059 treatment group, and 1 µM AST + 1 mM Suramin treatment group; and Activator group: 1% DMSO treatment group, 1 µM AST treatment group, 50 nM TPA treatment group, and 1 µM AST + 50 nM TPA treatment group.

[5] = test system: p-ERK2; assay: AST induced ERK phosphorylation experiment, Western blot in HPAF II cells: p-ERK2; type: cell-based
Method: AST induced ERK phosphorylation experiment. Three sets of experiments were conducted with corresponding three sets of variables: AST concentration, AST action time, and AKRAC3 enzyme dependent.
The expressions of NRF2 and AKR1C3 were detected by Western blot.

In the case of `C[S+]([O-])CCCCN=C=S` (centres unmarked) [SFN, Sulforaphane], the “expressions of AKR1C3” value [1] is reported as “also increased simultaneously” and the “expressions of NRF2” value [2] is reported as “significantly increased”.
For `Cc1ccc(C(=O)Nc2ccc(S(=O)(=O)O)c3cc(S(=O)(=O)O)cc(S(=O)(=O)O)c23)cc1NC(=O)c1cccc(NC(=O)Nc2cccc(C(=O)Nc3cc(C(=O)Nc4ccc(S(=O)(=O)O)c5cc(S(=O)(=O)O)cc(S(=O)(=O)O)c45)ccc3C)c2)c1` [suramin, Suramin, reference compound], the “expression level of p-ERK2” value ([3]; 1 mM Suramin alone) was “slightly reduced” and the “cell apoptosis (Caspase 3/7 luminescence)” value ([4]; 1 mM Suramin monotherapy) was “almost no effect on cell apoptosis”.
For `COc1cccc(-c2cc(=O)c3ccccc3o2)c1N` [PD98059, reference compound], the “expression level of p-ERK2” value ([3]; 30 µM PD98059 alone) was “slightly reduced” and the “cell apoptosis (Caspase 3/7 luminescence)” value ([4]; 30 µM PD98059 monotherapy) was “almost no effect on cell apoptosis”.
`O=C(N1CCOCC1)N1CCN(c2ccc(Cl)cc2Cl)CC1` [AST-3021, reference compound] was tested, and the “p-NRF2 expression level / level of p-ERK2” value ([5]; 3 µM AST-3021 alone, 24h) was “remained basically unchanged; also recorded: did not affect” and the “effect on the increase of AST-mediated phosphorylation of ERK2” value ([5]; 3 µmol/L AST-3021 pretreatment 2 hours before 1 µmol/L AST) was “strongly inhibited”.
